# Target: Androgen Receptor (AR) (Homo sapiens, UniProt P10275)
# Assay: competition radioligand binding with [3H]-R1881
# Androgen Receptor (AR), sequence (P10275 whole entry): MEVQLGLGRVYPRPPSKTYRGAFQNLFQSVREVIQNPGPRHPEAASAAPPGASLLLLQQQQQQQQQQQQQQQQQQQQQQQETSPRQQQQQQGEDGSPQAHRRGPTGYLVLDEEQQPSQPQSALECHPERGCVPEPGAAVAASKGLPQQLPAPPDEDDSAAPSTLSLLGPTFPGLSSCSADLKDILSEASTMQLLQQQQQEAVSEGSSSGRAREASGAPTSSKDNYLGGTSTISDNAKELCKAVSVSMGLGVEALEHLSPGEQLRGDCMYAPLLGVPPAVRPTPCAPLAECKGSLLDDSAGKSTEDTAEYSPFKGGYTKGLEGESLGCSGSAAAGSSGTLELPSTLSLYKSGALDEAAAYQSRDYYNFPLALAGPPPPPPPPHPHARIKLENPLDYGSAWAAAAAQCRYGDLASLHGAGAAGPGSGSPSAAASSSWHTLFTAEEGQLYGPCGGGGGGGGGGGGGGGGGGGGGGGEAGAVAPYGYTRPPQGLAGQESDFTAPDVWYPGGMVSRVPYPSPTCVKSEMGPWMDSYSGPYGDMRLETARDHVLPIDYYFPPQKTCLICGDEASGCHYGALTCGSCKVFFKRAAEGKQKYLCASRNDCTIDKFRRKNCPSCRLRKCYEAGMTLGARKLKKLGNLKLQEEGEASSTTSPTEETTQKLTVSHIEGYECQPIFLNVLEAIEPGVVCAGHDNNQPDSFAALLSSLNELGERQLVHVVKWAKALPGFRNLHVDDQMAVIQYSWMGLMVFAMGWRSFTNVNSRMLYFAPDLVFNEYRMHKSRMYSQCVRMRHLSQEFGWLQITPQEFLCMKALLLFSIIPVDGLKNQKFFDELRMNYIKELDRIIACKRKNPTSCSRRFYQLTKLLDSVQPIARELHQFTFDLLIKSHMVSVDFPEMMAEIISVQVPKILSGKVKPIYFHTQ
structure (smiles),measurement,value
CC1(C)C(=O)N(c2ccc(C#N)c(C(F)(F)F)c2)C(=S)N1CCCCO [RU59063],competition radioligand binding with [3H]-R1881 (parent ligand),competition radioligand binding assay using [^3H]-R1881 showed that appending of the adamantyl group to RU59063 reduced affinity

# Source: article PMC4547777 (Angewandte Chemie (International ed. in English), 2015)
